This is an account of results in US10383948B2, “Anti-cMet antibody drug conjugates and methods for their use” (AbbVie Inc., priority 2016, dated 2019).

For data set [1] the following is noted: patients; cited from earlier work.
The subject of a further data set is NCI-H820. Description: Cytotoxicity assay (CellTiter-Glo, 6 days). The class given is cell-based, human. Particulars: NCI-H820, without MET amplification; FIG. 4C. The method, then: Tumor cells were plated at 2000-5000 cells/well in 180 μL growth medium containing 10% FBS in 96-well plates, and cultured at 37° C. in a humidified incubator with 5% C02. The following day, titrations of antibodies or ADCs in 20 μL were added and cells were incubated for 6 days. Cell viability was determined using a CellTiter-Glo Luminescent Cell Viability Assay (Promega) according to the manufacturer's instructions.
Tumor cells were plated at 2000-5000 cells/well in 180 μL growth medium containing 10% FBS in 96-well plates, and cultured at 37° C. in a humidified incubator with 5% C02. The following day, titrations of ADCs in 20 μL were added and cells were incubated for 6 days. Cell viability was determined using a CellTiter-Glo Luminescent Cell Viability Assay (Promega) according to the manufacturer's instructions.

For data set [2], the system named is Hs746T ABT-700R xenografts. The experiment in a line: ABT-700-refractory xenograft efficacy. Particulars: Hs746T ABT-700R xenografts; FIG. 12B. It counts as in vivo, mice.
In data set [3] the test system is Hs746T gastric cancer xenografts. Description: Hs746T xenograft efficacy. Particulars: parental Hs746T xenografts, initial treatment; FIG. 12A.
Method: Female SCID, SCID-Beige and nude mice were obtained from Charles River (Wilmington, Mass.) and housed at ten mice per cage. The body weight upon arrival was 20-22 g. Food and water were available ad libitum. Mice were acclimated to the animal facilities for a period of at least one week prior to commencement of experiments. Animals were tested in the light phase of a 12-hr light: 12-hr dark schedule (lights on at 06:00 hours).
Each experimental group included 8-10 animals.
Tumor volumes are depicted as mean±S.E.M.
For the next data set, the system named is NCI-H441. The experiment in a line: Cytotoxicity assay (CellTiter-Glo, 6 days). The class given is cell-based, human. The settings on record: NCI-H441, without MET amplification; FIG. 4D. The method, then:
(§1) Tumor cells were plated at 2000-5000 cells/well in 180 μL growth medium containing 10% FBS in 96-well plates, and cultured at 37° C. in a humidified incubator with 5% C02. The following day, titrations of antibodies or ADCs in 20 μL were added and cells were incubated for 6 days. Cell viability was determined using a CellTiter-Glo Luminescent Cell Viability Assay (Promega) according to the manufacturer's instructions. A non-binding, irrelevant negative control ADC conjugated to MMAE was also included in all assays to confirm that cell killing was antigen dependent.
(§2) Tumor cells were plated at 2000-5000 cells/well in 180 μL growth medium containing 10% FBS in 96-well plates, and cultured at 37° C. in a humidified incubator with 5% C02. The following day, titrations of ADCs in 20 μL were added and cells were incubated for 6 days. Cell viability was determined using a CellTiter-Glo Luminescent Cell Viability Assay (Promega) according to the manufacturer's instructions. A non-binding, irrelevant negative control ADC conjugated to MMAE was also included in all assays to confirm that cell killing was antigen-dependent.
On the technique in general: Cellular ATP, detected with luciferase, serves as a proxy for viable cell number.

A further data set relates to Hs746T. Description: Cytotoxicity assay (CellTiter-Glo, 6 days). It counts as cell-based, human. The settings on record: MET-amplified Hs746T gastric cancer cells; FIG. 4. The method, then: as §1, §2
A further data set has as its system SNU-5. The experiment in a line: Cytotoxicity assay (CellTiter-Glo, 6 days). It counts as cell-based, human. The settings on record: MET-amplified SNU-5 gastric cancer cells; FIG. 4. As for the experimental part: as §1

As for “brentuximab vedotin: Seattle Genetics MMAE ADC with an approximate DAR of 4”, the dose not tolerated in data set [1] was 2.7 mg/kg.

For “ABT-700: humanized recombinant IgG1 kappa anti-cMet antibody, humanized version of mouse monoclonal antibody 224G11”, the “inhibition of proliferation” value in the data set with NCI-H820 is given as “not cell lines without MET amplification”; in the data set with NCI-H441, “not cell lines without MET amplification”; in the data set on Hs746T it was “inhibited proliferation of cells with MET amplification”; with SNU-5, “inhibited proliferation of cells with MET amplification”. The “tumor response” value is on record as “refractory to ABT-700 treatment with quick tumor outgrowth on therapy” in data set [2] and “tumor stasis followed by relapse” in data set [3].

In the case of DCDT2980S: an MMAE ADC targeting CD22, in data set [1], the dose not tolerated is 3.2 mg/kg and the dose tolerated is 2.4 mg/kg.
